Values of other authors as cited in patent publication US20160354348A1, “METHODS FOR PROPHYLATIC APPETITE SUPPRESSION” (Orexigen Therapeutics, Inc., priority 2005, published 2016).
Where two headings read alike, the source gives them in different places.

Key:
[1] = Colosimo & De Michele 1999
[2] = 20-25° C.

| Elimination half-life (T1/2) [1] | Solubility in aqueous acid [2] | t1/2 in erythrocytes (erythrocytes) | Protein bound (in vivo) [%] | Half-life (t1/2) in plasma | Half-life (t1/2) in plasma (listed as Zonisamide) [h] | SMILES |
| --- | --- | --- | --- | --- | --- | --- |
| about 1.5 hours | – | – | – | – | – | N[C@@H](Cc1ccc(O)c(O)c1)C(=O)O [levodopa] |
| – | about 200 mg/ml | about 105 hours | 40 | about 63 hours | 63 to 69 | NS(=O)(=O)Cc1noc2ccccc12 [zonisamide, 1,2-benzisoxazole-3-methanesulfonamide] |
